Columns and labels:
[1] = biological target: T1, Tau hexapeptide (306)VQIVYK(311) (PHF6) (Homo sapiens, UniProt P10636); assay: Inhibition of PHF6 self-aggregation (ThT fluorescence, TFE cosolvent); format: biochemical; conditions: inhibitor 25 μM, PHF6 50 μM
T1 construct: Tau hexapeptide (306)VQIVYK(311) (PHF6); purchased JPT Peptide Technologies GmbH, Berlin, Germany; host or cells: synthetic peptide
From the text: As an additional proof of the potential of DAN in interfering with AD-related processes, we investigated the effects on the in vitro self-aggregation of beta amyloid peptide 1–40 (Aβ40) and Tau hexapeptide (306)VQIVYK(311) (PHF6). Aβ40 is used as an in vitro probe of the fibrillization process leading to amyloid fibrils and ultimately to senile plaques in AD [32], while PHF6 represents the highly proaggregating sequence of the repeated domain R3 of Tau protein, responsible of the formation of neurofibrillary tangles and other tauopathies in NDs. […]
Highly aggregating hexapeptide Ac-VQIVYK-NH2 (trifluoroacetate salt; JPT Peptide Technologies GmbH, Berlin, Germany) was used as mimic of tau fibrillization in vitro. […] Incubation samples were prepared in black low-binding, flat-bottomed polystyrene 96-well microtiter plates, containing PHF6 (final conc. 50 μM), inhibitor (25 μM) and ThT (10 μM) in a final volume of 180 μL, and immediately read with Tecan Infinite M1000 Pro instrument. Samples were set in triplicate and their fluorescence values subtracted of the blank. […] Fluorescence was measured at 440/485 excitation/emission wavelength within 2 h at 25 °C. Endpoint fluorescence values (arbitrary fluorescence units, AFU) were used for the calculation of residual aggregation as in Equation (1): % residual aggregation = 100 × AFUsample/AFUcontrol(1)

[2] = biological target: T2, carnitine/acylcarnitine carrier (CAC) in intact rat liver mitochondria (Rattus norvegicus, UniProt P97521); assay: [3H]-carnitine uptake (CAC transport) in intact mitochondria; format: biochemical; conditions: 50 μM, after 120 min, 0.05 mM [3H]-carnitine
T2 construct: The measurement of CAC activity in isolated entire mitochondria has been performed as previously described; from tissue; host or cells: rat liver mitochondria (intact organelles)
T2 sequence (P97521 1-301): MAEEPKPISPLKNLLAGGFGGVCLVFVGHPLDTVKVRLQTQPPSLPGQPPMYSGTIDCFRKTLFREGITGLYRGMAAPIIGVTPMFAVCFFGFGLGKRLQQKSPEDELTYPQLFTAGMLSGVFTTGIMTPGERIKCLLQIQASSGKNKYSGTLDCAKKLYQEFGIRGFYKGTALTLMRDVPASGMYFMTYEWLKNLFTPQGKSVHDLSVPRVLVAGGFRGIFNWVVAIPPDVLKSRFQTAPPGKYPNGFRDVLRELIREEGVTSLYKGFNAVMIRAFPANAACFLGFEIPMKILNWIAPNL
Experimental: The purification of crude rat mitochondria and the measurement of CAC transport activity are described in Materials and Methods. The uptake of carnitine was started by adding 0.05 mM [^3H]-carnitine in the presence or absence of 50 μM DAN (dissolved in 1:1 DMSO/H2O). The transport activity was inhibited at various times by adding cold 1 mM N-ethylmaleimide (NEM) in a buffer containing 150 mM sucrose, 50 mM TRIS-HCl, 50 mM KCl. […] Addition of DAN to intact mitochondria induced an increase of transport function up to 41% after 120 min.
In order to isolate crude mitochondria from rat liver, a standard protocol was performed, involving cell destruction by mechanical stress, isolation by differential centrifugation in order to eliminate various subcellular contaminations, and purification by centrifugation on colloidal silica Percoll 30% gradient. The average purity of the mitochondrial preparation was monitored by measuring the specific activity of alkaline phosphatase (EC 3.1.3.1). The specific activity of alkaline phosphatase, in the mitochondria preparations was measured at 37 °C as substrate consumed per min per mg protein [55]. […] The purified mitochondria (5 mg/100 μL) were incubated for 2 h with 20 mM carnitine, washed three times with a buffer containing 150 mM sucrose, 50 mM TRIS-HCl, 50 mM KCl, and the transport activity was measured. […]

hMAO A = biological target: T3, hMAO A (Homo sapiens, UniProt P21397); assay: biochemical
T3 sequence (P21397 1-527): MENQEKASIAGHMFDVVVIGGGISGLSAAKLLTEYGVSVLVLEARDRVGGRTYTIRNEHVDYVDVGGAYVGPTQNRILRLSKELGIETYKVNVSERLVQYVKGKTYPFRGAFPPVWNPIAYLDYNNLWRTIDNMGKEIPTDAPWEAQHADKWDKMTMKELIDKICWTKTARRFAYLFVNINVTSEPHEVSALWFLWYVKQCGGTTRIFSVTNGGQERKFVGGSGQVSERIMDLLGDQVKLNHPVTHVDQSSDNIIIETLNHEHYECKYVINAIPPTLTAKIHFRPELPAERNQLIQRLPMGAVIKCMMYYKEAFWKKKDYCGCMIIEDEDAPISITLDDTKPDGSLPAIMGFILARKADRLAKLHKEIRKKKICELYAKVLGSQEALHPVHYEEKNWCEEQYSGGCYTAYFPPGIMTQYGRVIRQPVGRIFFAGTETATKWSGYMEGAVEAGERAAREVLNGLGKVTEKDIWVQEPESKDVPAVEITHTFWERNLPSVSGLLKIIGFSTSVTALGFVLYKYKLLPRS
Experimental: Selectivity over the corresponding isoforms hMAO A and butyrylcholinesterase (hBChE) was also verified.
An already published protocol using human recombinant monoamine oxidases A (250 U/mg) and B (59 U/mg; microsomes from baculovirus infected insect cells) [29] was used by applying a 96-well plate technique (instrument Infinite M1000 Pro, Tecan, Cernusco s.N., Italy). Briefly, compounds at a concentration ranging from 30 to 0.01 μM were preincubated 20 min at 37 °C with substrate kynuramine, in phosphate buffer 8.0 made 0.39 osmolar with KCl. After addition of enzyme and further 30 min of incubation, NaOH was added and the fluorescence read at 310/400 excitation/emission wavelength. Experiments were performed in duplicates in black, flat-bottomed polystyrene 96-well microtiter plates (Greiner Bio-One GmbH, Frickenhausen, Germany). […] Inhibition values and kinetics were calculated by means of Prism (GraphPad Prism version 5.00 for Windows, GraphPad Software, San Diego, CA, USA).

O=C1CN(/N=C/c2ccc(-c3ccc([N+](=O)[O-])cc3)o2)C(O)=N1 [Dantrolene]
inhibition at 25 µM [1]: 32% | increase of CAC transport function in intact mitochondria [2]: 41% | IC50 (hMAO A): 14 ± 1 µM
